This is an account of results in PubChem BioAssay (NCI).

Among the test systems are HT29 colon; 786-0 renal; OVCAR-4 ovarian; SK-MEL-2 melanoma; DU-145 prostate; OVCAR-5 ovarian; RXF 393 renal.
Test in all cases: NCI anticancer screen, dose series, 48 h

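Five concentrations, 48 hours, 96-well plates. Here, GI50 denotes the concentration required for 50% inhibition of growth. TGI denotes the concentration required for complete inhibition of growth.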

Take `C/C=C(\C)CC/C=C/CO[Si](C)(C)C(C)(C)C`: the TGI with HT29 colon, in the test with 786-0 renal, with OVCAR-4 ovarian, in the test on SK-MEL-2 melanoma, with DU-145 prostate and with OVCAR-5 ovarian was over 100 µM in each case. Besides, the TGI in the test on RXF 393 renal is over 100 µM.

With `COC(=O)[C@H](Cc1c[nH]c2ccccc12)NC(=O)[C@@H](OC)[C@@H]1Cc2cc3cc(OC4CC(OC5CC(O)C(O)C(C)O5)C(O)C(C)O4)c(C)c(O)c3c(O)c2C(=O)[C@H]1OC1CC(OC2CC(OC3CC(C)(O)C(O)C(C)O3)C(O)C(C)O2)C(O)C(C)O1` (stereo partly drawn), the GI50 was 6.11 nM with HT29 colon; 15.8 nM in the test on 786-0 renal; 0.0125 µM in the test with OVCAR-4 ovarian; 4.9 nM in the test with SK-MEL-2 melanoma; 7.13 nM in the test on DU-145 prostate; 10.2 nM in the test with OVCAR-5 ovarian. Further, in the test on RXF 393 renal, the GI50 is 8.33 nM. In addition, the TGI with 786-0 renal is over 16.5 µM; with OVCAR-4 ovarian it was over 16.5 µM; in the test on SK-MEL-2 melanoma, 0.0145 µM; in the test with DU-145 prostate, over 16.5 µM; in the test on OVCAR-5 ovarian, over 16.5 µM; with RXF 393 renal, 0.0243 µM.

In the case of `COc1cc(NS(=O)(=O)c2ccc(-c3cnc(C4CC4)o3)cc2)ccc1F`, the GI50 was 268 nM in the test on HT29 colon; 694 nM with 786-0 renal; 2.05 µM with OVCAR-4 ovarian; 706 nM in the test with SK-MEL-2 melanoma; 765 nM with DU-145 prostate; 1150 nM with OVCAR-5 ovarian. In addition, the GI50 in the test on RXF 393 renal is 276 nM. Moreover, the TGI with HT29 colon was 12.5 µM; in the test with 786-0 renal, 21.4 µM; with OVCAR-4 ovarian, 36.2 µM; in the test on SK-MEL-2 melanoma it was 23.6 µM; in the test with DU-145 prostate, 58.9 µM; in the test on OVCAR-5 ovarian, 29.5 µM. The TGI in the test on RXF 393 renal was determined as 6.52 µM.

As to `COc1cc2c3c(n(C)c(=O)c2cc1OC)-c1cc2c(cc1/C3=C\CNCCCN)OCO2`, the GI50 with HT29 colon is 376 nM; in the test on 786-0 renal, 367 nM; in the test with OVCAR-4 ovarian, 3.42 µM; with SK-MEL-2 melanoma, 2330 nM; with DU-145 prostate it was 1150 nM; in the test with OVCAR-5 ovarian it was 1280 nM. The GI50 with RXF 393 renal is 1690 nM. Besides, the TGI with HT29 colon is over 100 µM; with 786-0 renal it was 6.07 µM; in the test on OVCAR-4 ovarian, 36.6 µM; in the test with DU-145 prostate, 12.8 µM; in the test on OVCAR-5 ovarian, 18.9 µM; in the test with RXF 393 renal, 7.1 µM.

Consider `CCC(=O)c1c(C(F)(F)F)n([O-])c2ccc(C)cc2[n+]1=O`, for which the GI50 with HT29 colon was 14100 nM; in the test on 786-0 renal it was 22000 nM; in the test with OVCAR-4 ovarian, 24 µM; in the test on SK-MEL-2 melanoma, 8350 nM; in the test with DU-145 prostate, 5990 nM; in the test with OVCAR-5 ovarian, 3430 nM. Further, in the test on RXF 393 renal, the GI50 is 23400 nM. The TGI in the test with HT29 colon is over 50 µM; in the test with 786-0 renal, over 50 µM; in the test on OVCAR-4 ovarian it was over 50 µM; in the test with SK-MEL-2 melanoma, over 50 µM; in the test on DU-145 prostate it was 16.6 µM; in the test with OVCAR-5 ovarian it was 41.6 µM. Also, in the test with RXF 393 renal, the TGI was over 50 µM.

As for `COc1ccccc1Cn1cc2c(c1-c1ccccc1)CCc1cnoc1-2`, the GI50 in the test with HT29 colon is 2020 nM; in the test on 786-0 renal, 4040 nM; with OVCAR-4 ovarian, 8.56 µM; in the test with SK-MEL-2 melanoma, 1830 nM; with DU-145 prostate, 2760 nM; with OVCAR-5 ovarian, 9820 nM. Moreover, the GI50 in the test with RXF 393 renal was 2570 nM. The TGI in the test with HT29 colon is 7.3 µM; with 786-0 renal, over 100 µM; with OVCAR-4 ovarian, over 100 µM; with SK-MEL-2 melanoma, 9.97 µM; in the test with DU-145 prostate it was 12.1 µM; with OVCAR-5 ovarian it was over 100 µM. This compound also showed a TGI in the test on RXF 393 renal of over 100 µM.

`CCc1oc2ccccc2c1C(=O)c1cc(I)c(O)c(I)c1`: the GI50 in the test with HT29 colon was 3610 nM; in the test on 786-0 renal, 3760 nM; in the test on OVCAR-4 ovarian it was 5.07 µM; in the test with SK-MEL-2 melanoma it was 7420 nM; with DU-145 prostate, 2370 nM; in the test on OVCAR-5 ovarian, 11400 nM. In the test with RXF 393 renal, the GI50 was 2980 nM. The TGI in the test on HT29 colon was determined as 14.5 µM; in the test with 786-0 renal, 15.3 µM; with OVCAR-4 ovarian, 18.1 µM; with SK-MEL-2 melanoma, 28 µM; in the test with DU-145 prostate, 7.4 µM; with OVCAR-5 ovarian, 25.1 µM. Also, the TGI in the test on RXF 393 renal stood at 16 µM.

Regarding `Cn1cnc([N+](=O)[O-])c1[Se]c1nc(N)nc2c1ncn2C1OC(CO)C(O)C1O` (stereo not drawn), the TGI in the test with HT29 colon, in the test on 786-0 renal, with OVCAR-4 ovarian, in the test on SK-MEL-2 melanoma, with DU-145 prostate and in the test on OVCAR-5 ovarian was over 100 µM in each case. The compound also showed a TGI in the test with RXF 393 renal of over 100 µM.

With `CCOC(=O)c1c(C)nc2c(c1N)/C(=C/c1ccc(OC)cc1)C(=O)N2Cc1ccc(F)cc1`, the GI50 with HT29 colon is 171 nM; in the test on 786-0 renal, 165 nM; in the test with OVCAR-4 ovarian it was 0.392 µM; with SK-MEL-2 melanoma, 238 nM; in the test with DU-145 prostate it was 279 nM; in the test with OVCAR-5 ovarian, 246 nM. The GI50 with RXF 393 renal was 140 nM. For the same compound, the TGI in the test with HT29 colon is 0.587 µM; in the test with 786-0 renal, 0.389 µM; in the test with OVCAR-4 ovarian, 6.25 µM; with SK-MEL-2 melanoma, 0.729 µM; in the test on DU-145 prostate it was 1.12 µM; in the test on OVCAR-5 ovarian it was 0.561 µM. In the test on RXF 393 renal, this compound displayed a TGI of 0.329 µM.

For the compound `COC(=O)c1c(C)[nH]c(/C=C2\N=C(c3ccc[nH]3)C=C2OC)c1C`, the GI50 in the test on HT29 colon is 33.9 nM; with 786-0 renal, 262 nM; in the test on OVCAR-4 ovarian, 0.571 µM; with SK-MEL-2 melanoma, 328 nM; with DU-145 prostate, 426 nM; in the test on OVCAR-5 ovarian, 1400 nM. Moreover, the GI50 in the test with RXF 393 renal was 515 nM. In addition, the TGI in the test on HT29 colon is over 100 µM; with 786-0 renal it was 1.4 µM; with OVCAR-4 ovarian, 2.44 µM; with SK-MEL-2 melanoma, 1.27 µM; in the test on DU-145 prostate it was over 100 µM; in the test on OVCAR-5 ovarian it was 3.9 µM. In addition, the TGI in the test on RXF 393 renal is 4.27 µM.

For `COc1ccc(OC)c(C(=O)c2oc3ccc(Br)cc3c2N)c1`, the GI50 in the test on HT29 colon was 326 nM; in the test on 786-0 renal, 581 nM; with OVCAR-4 ovarian, 3.61 µM; in the test on SK-MEL-2 melanoma it was 357 nM; with DU-145 prostate, 604 nM; with OVCAR-5 ovarian, 1560 nM. Besides, the GI50 with RXF 393 renal is 300 nM. In addition, the TGI with HT29 colon is 10.7 µM; in the test with 786-0 renal, 47.4 µM; in the test with OVCAR-4 ovarian it was over 100 µM; with SK-MEL-2 melanoma, 4.34 µM; in the test on DU-145 prostate, 17.3 µM; with OVCAR-5 ovarian, over 51.7 µM. Moreover, in the test with RXF 393 renal, the TGI is 1.69 µM.
